The values that follow come from patent US7592326B2, “Method for stimulating the immune, inflammatory or neuroprotective response” (priority 2004, dated 2009).

One series deals with NF-κB. The series is described as follows: Western blot signaling in human DCs: NF-κB (I-κBα degradation). Format: cell-based. To be noted: up to 30 min. As to the method:
(§1) Human PBMC were isolated by Ficoll density gradient centrifugation from leukopacks supplied by the Department of Transfusion Medicine (Clinical Center, National Institute of Health, Bethesda, Md.). Monocytes were purified (>95%) from human PBMC with MACS CD14 monocyte isolation kit (Miltenyi Biotech Inc., Auburn, Calif.) according to the manufacturer's instruction. DCs were generated as described previously (Yang et al., 2001). In brief, DCs were generated by incubating purified monocytes at 2×10^5/ml in RPMI 1640 containing 10% FBS, 2 mM glutamine, 25 mM HEPES, 100 U/ml penicillin, 100 ug/ml streptomycin, 50 ng/ml recombinant human GM-CSF (PeproTech, Rocky Hill, N.J.), and 50 ng/ml recombinant human IL-4 (PeproTech) at 37° C. in a CO2 (5%) incubator for 7 days. On day 3 and 5 of the incubation, half of the culture medium was replaced with pre-warmed (37° C.) fresh GM-CSF- and IL-4-containing medium. On day 7, DCs were collected, washed three times with PBS, and serum-starved for 8 hours by incubating in serum-free RPMI-1640 containing GM-CSF and IL-4 (2×10^5/ml) at 37° C. in a CO2 (5%) incubator. Subsequently, DCs (2×10^6/sample) were incubated at 37° C. in the absence or presence of c-di-GMP or GMP (Sigma, St. Louis, Mo.) at concentrations specified for 5 or 30 minutes. […]
In general terms: A western blot detects proteins with antibodies after separation by electrophoresis.

The format of series [1] is in vitro ADME, human. The procedure:
Commercially supplied pooled human serum (100 uL) (Cambrex Bio Science Walkersville, Inc.) was diluted in ion-exchanged water. An aliquot of the resulting human serum solution was subjected to HPLC analysis (conditions: COSMOSIL 5C18-AR-II column (4.6×200 mm); buffer A; buffer B, 80% acetonitrile in water; gradient, 0-10 min A 100%, 10-60 min A:B=100:0 to A:B=40:60 in 50 min; detection 254 nm, flow rate, 1.0 mL/min, temperature 40° C.). Separately, a 100 uM of c-di-GMP solution in human serum was prepared by adding 100 uL of a 500 uM c-di-GMP aqueous solution to a mixture of 390 uL of human serum and 10 uL of 40 mM 2-methylbenzimidazole (an internal standard for estimating the extent of decomposition of c-di-GMP) in methanol. An aliquot of the test solution was diluted immediately after the preparation solution and then heated at 100° C. for 5 min to quench activity of enzymes. The resulting test sample was subjected to HPLC analysis after 24 h treatment. Peaks that appeared in both analyses were compared. Results are based on 3 independent experiments.

The test system of the next series is JNK. Kind of series: Signaling in human DCs: JNK. Format: cell-based. To be noted: under the conditions tested. As to the method: as §1
For another series, the system named is human basophils. Kind of series: IL-3 dependent IL-13 secretion by human basophils. Format: cell-based. As to conditions: under the conditions tested.
The subject of series [2] is immature DCs (iDC) and mature DCs (mDC). Kind of series: Cytokine production by dendritic cells (sandwich ELISA of supernatants). As to conditions: 24 h. Format: cell-based, human. The procedure: Analysis of supernatant cytokine content was performed both on treated (c-di-GMP) or untreated saline control (NaCl) immature DCs (iDC) and mature DCs (mDC). Culture supernatants were collected after 24 h treatment and IL-1β, IL-6, IL-10, IL-12, and TNF- α contents were measured using a sandwich ELISA according to the manufacturer's instructions.
In general terms: ELISA stands for enzyme-linked immunosorbent assay.

The subject of series [3] is Plasmacytoid dendritic cells (pDCs). Kind of series: IFN secretion by human plasmacytoid dendritic cells. To be noted: two independent experiments in duplicate; data not shown. Format: cell-based. The procedure:
Venipuncture was performed on consenting adults using approved protocols. Plasmacytoid dendritic cells (pDCs) were prepared, as previously described (Schroeder et al., 2005), using a 2-step procedure involving Percoll density centrifugation followed with selection for Blood Dendritic Cell Antigen (BDCA)-4 positive cells (Miltenyi Biotec, Inc., Auburn, Calif.). The capacity of c-di-GMP to induce IFN-alpha from these cells was assessed using cell culture and ELISA protocols also previously described (Schroeder et al., 2005) and was simultaneously compared to the […] produced by pDC in response to cells stimulated with CpG oligodeoxynucleotide (ODN)-2216 (Krieg, 2002).

On to `Nc1nc(=O)c2ncn([C@@H]3OC4COP(=O)(O)O[C@H]5[C@@H](O)[C@H](n6cnc7c(=O)nc(N)[nH]c76)O[C@@H]5COP(=O)(O)OC4C3O)c2[nH]1` (some centres unmarked) [c-di-GMP, Bis(3′→5′)-cyclic diguanylic acid], for which, in the series with NF-κB, the “activation of NF-κB (I-κBα degradation)” value was “did not activate”. Besides, the “stability in human serum” value in series [1] is “stable”. Moreover, the “activation of JNK” value in the series on JNK was “did not activate”. Moreover, in the series with human basophils, the “effect on IL-13 induced by IL-3” value is listed as “essentially no inhibition”. Also, the IL-10 expression result in series [2] (DCs) is reported as “no major effect”. The “production of TNF-α” value in series [2] (iDCs, 5 μM, FIG. 3A) is “dramatic increase”. The IL-12 secretion result in series [2] (immature DCs) is given as “undetectable”. Moreover, in series [2] (mDCs (LPS-treated), 50 μM), the IL-12 production result was “dramatic increase”. Also, in series [2] (mDCs (LPS-treated), 100 μM, FIG. 3B), the IL-6 production entry is “increase”. For the same compound, the IL-1β production entry in series [2] (mDCs (LPS-treated), FIG. 3B) was “major increase”. The “induction of Type I IFN from pDC” value in series [3] is listed as “negative”.
